Assay results published in patent US20140171445A1, “TREATMENT AND PREVENTION OF DISEASES MEDIATED BY MICROORGANISMS VIA DRUG-MEDIATED MANIPULATION OF THE EICOSANOID BALANCE” (priority 2011, published 2014).

Experiments:
[1] = test system: Mycobacterium tuberculosis; set-up: species or system C57BL6 mice; settings: mouse, in vivo
[2] = test system: Mycobacterium tuberculosis
tuberculosis = settings: intranasal; Antonelli et al., J. Clin. Investigation 2010; cited from earlier work

Question: Which “colony forming units (CFU) in lungs” value [1] does the source give for poly-ICLC here?
Answer: approximately 8.9 log^10 CFU

Question: And the “mice that survived past day 53 post-infection” value ([2]; M. tuberculosis-infected B6 mice treated with poly-ICLC alone, five mice)?
Answer: None

Question: And the “mean weight as % of starting weight” value ([2]; M. tuberculosis-infected B6 mice, after 31 days, treated with intranasal poly-ICLC twice weekly)?
Answer: approximately 74%

Question: What about the “effect on tuberculosis in mice” value (tuberculosis) of the same molecule?
Answer: exacerbate tuberculosis

Question: Which “colony forming units (CFU) in lungs” value [1] does the source give for `CC(c1cc2ccccc2s1)N(O)C(N)=O` (centres unmarked) [zileuton] here?
Answer: approximately 7.6 log^10 CFU
